These results are taken from PMC5719074, “Electrostatic Map Of Proteasome α-Rings Encodes The Design of Allosteric Porphyrin-Based Inhibitors Able To Affect 20S Conformation By Cooperative Binding” (Scientific Reports, 2017).

Experiment [1] deals with human 20S proteasome PGPH-L activity. The note with it: read-out: IC50 PGPH-L; 2 nM 20S, 30 min at 37°C, 100 µM substrate.
Description: (§19) Proteasome activity assay. 2 nM of 20S proteasome was incubated with increasing concentrations
(§20) of inhibitor (ranging from 0.5 to 3 µM) for 30 min at 37°C in the assay buffer (50 mM HEPES,
(§21) 1mM EDTA, pH7.5) and, subsequently, 100 µM of AMC-labeled substrate peptide was added
(§22) Proteasome activity was monitored by measuring the AMC fluorescence
(§23) at 440 nm (excitation at 360nm) for 20 min, using a fluorescence plate reader (Multiskan, Thermo)
(§24) A minimum of three replicates were performed for each data point.
(§25) Fluorescent substrate cleavage by the 20S proteasome was linear during this incubation time frame.
(§26) Data are expressed as normalized percentages of residual activity considering the slope of the
(§27) control (fluorogenic peptide/proteasome in the absence of inhibitors) as 100% of proteasome
(§28) activity. Dose-response plots of the residual proteasome activity in the presence of increasing
(§29) concentration of inhibitor provides a quantitative estimate of its potency. The IC50 is defined as the
(§30) concentration of the inhibitor which causes 50% reduction of activity and it is thus calculated from […]
(§31) (normalized for the enzyme concentration, v/[Etot]) was measured as a function of substrate
(§32) concentration (between 6 µM and 100 µM) for each inhibitor concentration (I) and analyzed as a […]
(§33) evaluated by visual examination of the fitted curves, 95% confidence bounds for the fitted […]
For experiment [2], the target named is human 20S proteasome ChT-L activity. The following applies: read-out: IC50 ChT-L; 2 nM 20S, 30 min at 37°C, 100 µM substrate.
Description: as §19, §20, §21, §22, §23, §24, §25, §26, §27, §28, §29, §30, §31, §32, §33
The subject of the next experiment is T1, human 20S proteasome.
T1 construct: purchased Boston Biochem (Cambridge, MA, USA)
More on the design: method as in PMID 22642538. The following applies: cited from earlier work.

Experiment [3] deals with human 20S proteasome T-L activity. The following applies: read-out: IC50 T-L; 2 nM 20S, 30 min at 37°C, 100 µM substrate.
Description: as §19, §20, §21, §22, §23, §24, §25, §26, §27, §28, §29, §30, §31, §32, §33
Experiment [4] concerns α-3ΔN mutant of yeast 20S proteasome. In words: UV stopped-flow binding kinetics. The note with it: simple bimolecular binding, 37 °C. The text has this: (§1) The analysis of kinetic progress curves, employing Eq. (S8), allows to obtain the values of k obs at different porphyrin concentrations, which can be exploited, for a classical bimolecular behavior, to obtain the association and dissociation rate constants according to Eq. (1a)1a kobs=kon⋅[Porph]+koff […]
(§2) Therefore, the classical bimolecular behavior, as from Eq. (1a), has been modified accordingly:1b kobs=(kc⋅Pc/Ptot+ko⋅Po/Ptot)⋅[Porph]+koff where k c and k o are the porphyrin binding rate constants to the 20S proteasome in the “closed” and in the “open” conformation, respectively, k off is the dissociation rate constant of the porphyrin, P c and P o are the relative percentage of the two conformations (“closed” and “open”, respectively) as a function of porphyrin concentration, as from Eqs. (S4–S7) (see SI). […]
(§3) Cooperativity for Porphyrin Binding. In the presence of (at least) two states (i.e., “open” and […]
(§4) corresponds to the population of “closed” 20S as a function of porphyrin concentration (with Kc being the porphyrin equilibrium binding constant for this conformation) and Po […]
(§5) Refers to the population of “open” 20S as a function of porphyrin concentration, Ko being the equilibrium porphyrin binding constant and L is the conformationa l equilibrium between the two states in the absence of porphyrins, as from Eq. (S6)

Experiment [5] has as its system wild-type yeast 20S proteasome. Nature of the experiment: UV stopped-flow binding kinetics. The following applies: first cluster, 37 °C.
Description: as §1, §2, §3, §4, §5

A further experiment relates to α-3ΔN yeast mutant 20S. In words: Steady-state kinetic analysis (Lineweaver-Burk), Suc-LLVY-AMC. The note with it: yeast mutant α-3ΔN (open conformation). Format: biochemical. The text has this:
(§6) Proteasome activity assay.
(§7) Latent Core Particles (CP).
(§8) in a 384 multiwell black plate.
(§9) The IC50 is defined as the
(§10) double-reciprocal Lineweaver-Burk plot
(§11) squares. […] The goodness of fit was
(§12) [Etot ] = KI ⋅ 1 + 1 (S3a)
(§13) or an un-competitive inhibition equation:
(§14) [Etot ] = Km ⋅ 1 + KI (S3b)
(§15) or else a mixed inhibition equation: […]
(§16) different affinity for the two forms.
(§17) Cooperativity for Porphyrin Binding.
(§18) be described by Eq. (1b) 2 where Pc

The subject of experiment [6] is wild-type yeast 20S proteasome. The experiment is described as above. Format: biochemical.
Description: as §6, §7, §8, §9, §10, §11, §12, §13, §14, §15, §16, §17, §18

For the compound `C[n+]1ccc(-c2c3nc(c(-c4cc[n+](C)cc4)c4ccc([nH]4)c(-c4cc[n+](C)cc4)c4nc(c(-c5cc[n+](C)cc5)c5ccc2[nH]5)C=C4)C=C3)cc1` [compound 1, meso-tetrakis(4-N-methylpyridyl) porphyrin], the figures for the IC50 in experiment [1], in experiment [2] and in experiment [3] were 140 nM, 393 nM and 640 nM, respectively. Further, the inhibition mechanism result with human 20S proteasome was “competitive and reversible inhibitor”.

Take `C[n+]1ccc(-c2ccc(-c3c4nc(c(-c5ccc(-c6cc[n+](C)cc6)cc5)c5ccc([nH]5)c(-c5ccc(-c6cc[n+](C)cc6)cc5)c5nc(c(-c6ccc(-c7cc[n+](C)cc7)cc6)c6ccc3[nH]6)C=C5)C=C4)cc2)cc1` [compound 2, meso-tetrakis(4-N-methylphenylpyridyl)-porphyrin]: the “ko, binding rate constant” value in experiment [4] turned out to be 2.5e+06 M⁻¹ s⁻¹. In experiment [5], the “L, open/closed conformational equilibrium in the absence of porphyrins” value is listed as 4.0 × 10^−6; the “kc, binding rate constant, closed conformation” value amounted to 130 M⁻¹ s⁻¹; the “ko, binding rate constant, open conformation” value stood at 7e+06 M⁻¹ s⁻¹. For the same compound, the inhibition mechanism result in the experiment on α-3ΔN yeast mutant 20S is on record as “competitive inhibitor”. In experiment [6], the inhibition mechanism entry is recorded as “almost pure non-competitive”.
